Key:
[1] = test system: YUMC-C1 cell line; conditions: YUMC-C1 xenograft mice; oral, 13 times for 41 days; doses of Table 3; vs control group
Method: (§1) 15 days after injection of each of the cell lines, when the tumor volume reached about 100 to 200 mm^3, mice having a tumor with the above volume were randomly grouped (n=10/group), and then each drug was administered to the mice 13 times for a total of 41 days under the conditions shown in Table 3 below. Then, the changes in tumor volume during this administration were measured, and the results of the measurement are shown in FIG. 3. In addition, the tumor was extracted and the net weight of the tumor was measured, and the results of the measurement are shown in FIG. 4. Here, nothing was administered to the control group.

[2] = test system: YUMC-C1 cell line; conditions: 200 μM, drug alone
Method: Each of the YUMC-C1, YUMC-H2 and YUMC-P1 cell lines of Example 1 was inoculated into 96-well plates at a density of 6×10^3 cells/well and then cultured overnight to a confluence of 90%. […] However, when hydroflumethiazide was used in combination with oxaliplatin or sorafenib, the treatment concentration of each of oxaliplatin and sorafenib was 30 μM. Thereafter, cell viability was measured using the MTT reagent. The absorbance was measured at 550 nm, and viable cells were counted using trypan blue staining.

[3] = test system: YUMC-H2 cell line; experiment: MTT cell viability of anticancer drug-resistant cancer cell line; assay type: cell-based, human; conditions: 200 μM, drug alone
[4] = test system: YUMC-P1 cell line; experiment: as above; assay type: cell-based, human; conditions: 200 μM, drug alone
[5] = test system: YUMC-H2 cell line; conditions: YUMC-H2 xenograft mice; oral, 13 times for 41 days; doses of Table 3
Method: as §1

[6] = test system: YUMC-P1 cell line; conditions: YUMC-P1 xenograft mice; oral, 13 times for 41 days; doses of Table 3
Method: as §1

## O=C1[O][Pt]2([NH][C@@H]3CCCC[C@H]3[NH]2)[O]C1=O [oxaliplatin]
[1]
  net tumor weight: did not significantly decrease
  tumor volume: did not significantly decrease
[2]
  cells survived: more than 80%

## CNC(=O)c1cc(Oc2ccc(NC(=O)Nc3ccc(Cl)c(C(F)(F)F)c3)cc2)ccn1 [sorafenib]
[3]
  cells survived: more than 80%
[4]
  cells survived: more than 80%
[5]
  net tumor weight: no significant changes
  tumor volume: no significant changes
[6]
  net tumor weight: no significant changes
  tumor volume: no significant changes

Source: patent publication US20240016812A1, “COMPOSITION FOR PREVENTING, ALLEVIATING OR TREATING CANCER” (CKP Therapeutics, Inc., priority 2021, published 2024)
